The text below walks through data of US9908868B2, “Isoindolinone compounds as GPR119 modulators for the treatment of diabetes, obesity, dyslipidemia and related disorders” (SANOFI, priority 2014, dated 2018).

In the test the target is T1, human GPR119 (Homo sapiens, UniProt Q8TDV5).
T1 construct: expressed in transfected cells
T1 sequence (Q8TDV5 1-335): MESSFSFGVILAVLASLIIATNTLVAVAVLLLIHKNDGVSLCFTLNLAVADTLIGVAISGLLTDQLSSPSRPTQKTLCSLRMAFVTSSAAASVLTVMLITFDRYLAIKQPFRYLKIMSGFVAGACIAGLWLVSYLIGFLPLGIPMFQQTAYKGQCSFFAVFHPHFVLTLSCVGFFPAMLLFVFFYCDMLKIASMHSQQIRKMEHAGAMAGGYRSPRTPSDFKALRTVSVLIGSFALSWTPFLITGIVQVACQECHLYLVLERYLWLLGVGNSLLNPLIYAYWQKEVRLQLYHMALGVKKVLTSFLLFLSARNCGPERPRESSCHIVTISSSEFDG
As to the kind of experiment: Functional cellular assay measuring GPR119-mediated cAMP release (HTRF) in HEK-293 cells stably expressing recombinant human GPR119. The class given is cell-based. The note with it: cAMP response, cell line expressing human GPR119, 30 minutes at room temperature. The gist of the method: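 HEK-293 cells stably expressing recombinant human GPR119, suspended at 400000 cells/mL in HBSS/20 mM HEPES/0.1% BSA/2 mM IBMX, exposed to compound for 30 minutes at room temperature. cAMP detected by HTRF (665/620 nm ratio) after 1 h with reagents in lysis buffer. EC50 taken as concentration giving 50% of maximal activation.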
In general terms: In TR-FRET formats the signal depends on donor and acceptor labels being close together.

What is called EC50 is the concentration that produces a half-maximal response. In the case of `COC(=O)CN1Cc2ccc(N3CC[C@@H](Oc4ccc(OCC5CC5)nc4)C3=O)cc2C1=O` [Example 1-40, methyl 2-[6-[(3R)-3-[[6-(cyclopropylmethoxy)-3-pyridyl]oxy]-2-oxo-pyrrolidin-1-yl]-1-oxo-isoindolin-2-yl]acetate], the EC50 was 44 nM.

With `CN(C)C(=O)CN1Cc2ccc(N3CC[C@@H](Oc4ccc(-c5csnn5)cc4)C3=O)cc2C1=O` [Example 2-40, N,N-dimethyl-2-[1-oxo-6-[(3R)-2-oxo-3-[4-(thiadiazol-4-yl)phenoxy]pyrrolidin-1-yl]isoindolin-2-yl]acetamide], the EC50 stood at 337 nM.

In the case of `O=C(CN1Cc2ccc(N3CC[C@@H](Oc4ccc(OCC5CC5)nc4)C3=O)cc2C1=O)NC[C@@H](O)CO` [Example 4-35, 2-[6-[(3R)-3-[[6-(cyclopropylmethoxy)-3-pyridyl]oxy]-2-oxo-pyrrolidin-1-yl]-1-oxo-isoindolin-2-yl]-N-[(2R)-2,3-dihydroxypropyl]acetamide], the EC50 came to 556 nM.

Take `C[S+]([O-])CN1Cc2ncc(N3CC[C@@H](Oc4ccc(C(=O)C5CC5)cc4)C3=O)cc2C1=O` (stereo partly drawn) [Example 1-61, 3-[(3R)-3-[4-(cyclopropanecarbonyl)phenoxy]-2-oxo-pyrrolidin-1-yl]-6-(methylsulfinylmethyl)-7H-pyrrolo[3,4-b]pyridin-5-one]: the EC50 is 516 nM.

Consider `CN(C)C(=O)CN1Cc2ccc(N3CC[C@@H](Oc4ccc(-n5cnnc5)cc4)C3=O)cc2C1=O` [Example 2-36, N,N-dimethyl-2-[1-oxo-6-[(3R)-2-oxo-3-[4-(1,2,4-triazol-4-yl)phenoxy]pyrrolidin-1-yl]isoindolin-2-yl]acetamide], for which the half-maximal effective concentration (EC50) is 32800 nM.

For `CN(C)C(=O)CN1Cc2ncc(N3CC[C@@H](Oc4ccc(Oc5ccc(F)cc5)nc4)C3=O)cc2C1=O` [Example 1-28, 2-[3-[(3R)-3-[[6-(4-fluorophenoxy)-3-pyridyl]oxy]-2-oxo-pyrrolidin-1-yl]-5-oxo-7H-pyrrolo[3,4-b]pyridin-6-yl]-N,N-dimethyl-acetamide], the EC50 was 976 nM.

As to `O=C(CN1Cc2c(F)cc(N3CC[C@@H](Oc4ccc(OCC5CC5)nc4)C3=O)cc2C1=O)NCCO` [Example 4-24, 2-[6-[(3R)-3-[[6-(cyclopropylmethoxy)-3-pyridyl]oxy]-2-oxo-pyrrolidin-1-yl]-4-fluoro-1-oxo-isoindolin-2-yl]-N-(2-hydroxyethyl)acetamide], the EC50 is 266 nM.

`CCOc1ccc(O[C@@H]2CCN(c3cc(F)c4c(c3)C(=O)N(CC(=O)NCCO)C4)C2=O)cn1` [Example 4-15, 2-[6-[(3R)-3-[(6-ethoxy-3-pyridyl)oxy]-2-oxo-pyrrolidin-1-yl]-4-fluoro-1-oxo-isoindolin-2-yl]-N-(2-hydroxyethyl)acetamide]: the EC50 turned out to be 547 nM.

For `CN(C)C(=O)CN1Cc2ccc(N3CC[C@@H](Oc4ccc(OCC(F)(F)F)cc4)C3=O)cc2C1=O` [Example 2-30, N,N-dimethyl-2-[1-oxo-6-[(3R)-2-oxo-3-[4-(2,2,2-trifluoroethoxy)phenoxy]pyrrolidin-1-yl]isoindolin-2-yl]acetamide], the EC50 is 82 nM.

As to `CCCN1Cc2ccc(N3CC[C@@H](Oc4ccc(OCC5CC5)nc4)C3=O)cc2C1=O` [Example 1-08, 6-[(3R)-3-[[6-(cyclopropylmethoxy)-3-pyridyl]oxy]-2-oxo-pyrrolidin-1-yl]-2-propyl-isoindolin-1-one], the EC50 turned out to be 1050 nM.

Consider `C[S+]([O-])CN1Cc2ccc(N3CC[C@@H](Oc4ccc(Oc5ccc(F)cc5)nc4)C3=O)cc2C1=O` (stereo partly drawn) [Example 1-50, 6-[(3R)-3-[[6-(4-fluorophenoxy)-3-pyridyl]oxy]-2-oxo-pyrrolidin-1-yl]-2-(methylsulfinylmethyl)isoindolin-1-one], for which the EC50 is 64 nM.

`CN(C)C(=O)c1nc2ccc(N3CC[C@@H](Oc4ccc(OCC5CC5)nc4)C3=O)cc2c(=O)[nH]1` [Example 1-44, 6-[(3R)-3-[[6-(cyclopropylmethoxy)-3-pyridyl]oxy]-2-oxo-pyrrolidin-1-yl]-N,N-dimethyl-4-oxo-3H-quinazoline-2-carboxamide]: the EC50 was 276 nM.

For `CC(C)(C)OC(=O)CN1Cc2c(F)cc(N3CC[C@@H](Oc4ccc(OCC5CC5)nc4)C3=O)cc2C1=O` [Example 1-01, Tert-butyl 2-[6-[(3R)-3-[[6-(cyclopropylmethoxy)-3-pyridyl]oxy]-2-oxo-pyrrolidin-1-yl]-4-fluoro-1-oxo-isoindolin-2-yl]acetate], the EC50 amounted to 89 nM.

Consider `CN(C)C(=O)CN1Cc2ccc(N3CC[C@@H](Oc4ccc(Oc5ccc(F)cc5F)nc4)C3=O)cc2C1=O` [Example 1-48, 2-[6-[(3R)-3-[[6-(2,4-difluorophenoxy)-3-pyridyl]oxy]-2-oxo-pyrrolidin-1-yl]-1-oxo-isoindolin-2-yl]-N,N-dimethyl-acetamide], for which the EC50 came to 73 nM.

With `CNC(=O)CN1Cc2ccc(N3CC[C@@H](Oc4ccc(OCC(F)(F)F)nc4)C3=O)cc2C1=O` [Example 4-38, N-methyl-2-[1-oxo-6-[(3R)-2-oxo-3-[[6-(2,2,2-trifluoroethoxy)-3-pyridyl]oxy]pyrrolidin-1-yl]isoindolin-2-yl]acetamide], the EC50 amounted to 131 nM.

For the compound `CN(C)C(=O)CN1Cc2ccc(N3CC[C@@H](Oc4ccc(-c5nnco5)cc4)C3=O)cc2C1=O` [Example 2-29, N,N-dimethyl-2-[6-[(3R)-3-[4-(1,3,4-oxadiazol-2-yl)phenoxy]-2-oxo-pyrrolidin-1-yl]-1-oxo-isoindolin-2-yl]acetamide], the EC50 turned out to be 3390 nM.

`CCOc1ccc(O[C@@H]2CCN(c3cc(F)c4c(c3)C(=O)N(CC#N)C4)C2=O)cn1` [Example 5-01, 2-[6-[(3R)-3-[(6-ethoxy-3-pyridyl)oxy]-2-oxo-pyrrolidin-1-yl]-4-fluoro-1-oxo-isoindolin-2-yl]acetonitrile]: the EC50 was 67 nM.

For `NC(=O)CN1Cc2ccc(N3CC[C@@H](Oc4ccc(C(=O)c5ccc(F)cc5)cc4)C3=O)cc2C1=O` [Example 2-50, 2-[6-[(3R)-3-[4-(4-fluorobenzoyl)phenoxy]-2-oxo-pyrrolidin-1-yl]-1-oxo-isoindolin-2-yl]acetamide], the EC50 is 102 nM.

Consider `CS(=O)(=O)CN1Cc2ncc(N3CC[C@@H](Oc4ccc(C(=O)C5CC5)cc4)C3=O)cc2C1=O` [Example 1-62, 3-[(3R)-3-[4-(cyclopropanecarbonyl)phenoxy]-2-oxo-pyrrolidin-1-yl]-6-(methylsulfonylmethyl)-7H-pyrrolo[3,4-b]pyridin-5-one], for which the EC50 is 139 nM.

Take `COCCNC(=O)CN1Cc2ccc(N3CC[C@@H](Oc4ccc(OCC5CC5)nc4)C3=O)cc2C1=O` [Example 4-02, 2-[6-[(3R)-3-[[6-(cyclopropylmethoxy)-3-pyridyl]oxy]-2-oxo-pyrrolidin-1-yl]-1-oxo-isoindolin-2-yl]-N-(2-methoxyethyl)acetamide]: the EC50 was found to be 144 nM.

Turning to `CN(C)C(=O)CN1Cc2ccc(N3CC[C@@H](Oc4ccc(C(=O)C5(C)CC5)nc4)C3=O)cc2C1=O` [Example 2-59, N,N-dimethyl-2-[6-[(3R)-3-[[6-(1-methylcyclopropanecarbonyl)-3-pyridyl]oxy]-2-oxo-pyrrolidin-1-yl]-1-oxo-isoindolin-2-yl]acetamide], the EC50 amounted to 330 nM.

Regarding `CN(CCO)C(=O)CN1Cc2ccc(N3CC[C@@H](Oc4ccc(OCC5CC5)nc4)C3=O)cc2C1=O` [Example 4-06, 2-[6-[(3R)-3-[[6-(cyclopropylmethoxy)-3-pyridyl]oxy]-2-oxo-pyrrolidin-1-yl]-1-oxo-isoindolin-2-yl]-N-(2-hydroxyethyl)-N-methyl-acetamide], the EC50 worked out at 281 nM.

For `CN(C)C(=O)CN1Cc2ccc(N3CC[C@@H](Oc4ccc(C(=O)C5CC5)c(F)c4)C3=O)cc2C1=O` [Example 2-62, 2-[6-[(3R)-3-[4-(cyclopropanecarbonyl)-3-fluoro-phenoxy]-2-oxo-pyrrolidin-1-yl]-1-oxo-isoindolin-2-yl]-N,N-dimethyl-acetamide], the EC50 amounted to 59 nM.

With `CNC(=O)CN1Cc2ccc(N3CC[C@@H](Oc4ccc(OCC5CC5)nc4)C3=O)cc2C1=O` [Example 4-09, 2-[6-[(3R)-3-[[6-(cyclopropylmethoxy)-3-pyridyl]oxy]-2-oxo-pyrrolidin-1-yl]-1-oxo-isoindolin-2-yl]-N-methyl-acetamide], the EC50 stood at 107 nM.

`C[S+]([O-])CN1Cc2ccc(N3CC[C@@H](Oc4ccc(OCC5CC5)nc4)C3=O)cc2C1=O` (stereo partly drawn) [Example 1-52, 6-[(3R)-3-[[6-(cyclopropylmethoxy)-3-pyridyl]oxy]-2-oxo-pyrrolidin-1-yl]-2-(methylsulfinylmethyl)isoindolin-1-one]: the EC50 came to 124 nM.

For the compound `CN(C)C(=O)CN1Cc2c(F)cc(N3CC[C@@H](Oc4ccc(OCC(F)(F)F)nc4)C3=O)cc2C1=O` [Example 6-01, 2-[4-fluoro-1-oxo-6-[(3R)-2-oxo-3-[[6-(2,2,2-trifluoroethoxy)-3-pyridyl]oxy]pyrrolidin-1-yl]isoindolin-2-yl]-N,N-dimethyl-acetamide], the EC50 is 77 nM.

As for `O=C(CN1Cc2ccc(N3CC[C@@H](Oc4ccc(OCC5CC5)nc4)C3=O)cc2C1=O)NCCO` [Example 4-05, 2-[6-[(3R)-3-[[6-(cyclopropylmethoxy)-3-pyridyl]oxy]-2-oxo-pyrrolidin-1-yl]-1-oxo-isoindolin-2-yl]-N-(2-hydroxyethyl)acetamide], the EC50 was found to be 249 nM.
